From patent publication US4452812A, “Organic complex of platinum, its preparation and its use for treating malignant tumors” (Sanofi, priority 1980, dated 1984)
“Also recorded” adds a separate entry of the source.

Key:
sarcoma S 180 = test: Anti-tumour activity, sarcoma S 180 ascite, i.p. graft, i.p. treatment; format: in vivo, mouse (Swiss female); conditions: for ILS: single i.p. on D1
Description: Swiss female mice (Evic-Ceba, Bordeaux) of 20 to 22 g
10^6 cells intraperitoneally grafted on D0
intraperitoneal treatment 24 hours later, D1, in one single injection.
(§1) The solutions of these compounds were prepared extemporaneously.

leukemia L 1210 [1] = test: Anti-tumour activity, leukemia L 1210, s.c. graft, i.p. treatment; format: in vivo, mouse; conditions: s.c. graft 10^6 cells
Description: (§2) I. […] L 1210: Ascite and Solid
(c) s.c. graft--i.p. treatment
10^6 cells were grafted under the skin behind the head on D0 and intraperitoneal treatment was carried out in one single injection either on D1 or on D4.
as §1

leukemia L 1210 [2] = test: Anti-tumour activity, leukemia L 1210, i.p. graft, i.v. treatment; format: in vivo, mouse; conditions: for ILS: i.p. graft 10^5 cells
Description: as §2
(b) i.p. graft--i.v. treatment
as §1

mouse = test: Acute toxicity in the mouse; format: in vivo, mouse (Swiss female); conditions: for loss of weight on the 4th day: i.p.
Description: Acute toxicity, one single injection of the compound, was measured using Swiss female mice (Evic-Ceba, Bordeaux) of 21 to 23 g. and Sprague-Dawley rats. Ten animals were treated for each dose studied.

L 1210 cells = test: Cellular penetration of platinum in vivo into L 1210 cells; design: species or system mouse (DBA/2); conditions: PHIC 150 mg/kg, two hours after treatment on D3
Description: DBA/2 mice received 10^6 L 1210 cells on D0 and were treated three days later with an amount of platinum compound equal to the LD0 in the healthy mouse. Two hours after treatment on D3, the animals were sacrificed. About 20.10^6 cells were extracted from the peritoneum and washed several times so as to eliminate the extra-cellular platinum and also any intracellular platinum which was not bound in a covalent manner with the cellular organelles. Platinum was monitored by atomic absorption for whole cells and also on the DNA which was purified by phenol extraction. […] This corresponds to 180.10^-16 g of platinum per leukemic cell. Under these conditions, one fixed platinum atom per 3000 nucleotides was found, i.e. a total of 1% of the amount which penetrated the cells was complexed to DNA. […] 10^-16 of platinum per cell.

abdominal viscera = test: Peritonitis (adhesion and hardening of abdominal viscera); format: in vivo, mouse
Description: as §1
As discussed above this problem seems to be linked to the presence of the 1,2-diaminocyclohexane ligand.

NC1CCCCC1N.O=C([O-])CC(C(=O)[O-])C([O-])C(=O)[O-].[H+].[H+].[Pt+2] (stereo not drawn) [PHIC, cis-isocitrato (1,2-diaminocyclohexane) platinum (II)]
ILS (sarcoma S 180; 10 mg/kg): 29%
ILS (sarcoma S 180; 25 mg/kg): 46%
ILS (sarcoma S 180; 50 mg/kg): 112%
ILS (sarcoma S 180; 100 mg/kg): 171%
Survivals (sarcoma S 180; S 180, 10 mg/kg i.p. on D1, day 60): 0%
Survivals (sarcoma S 180; S 180, 25 mg/kg i.p. on D1, day 60): 0%
Survivals (sarcoma S 180; S 180, 50 mg/kg i.p. on D1, day 60): 20%
Survivals (sarcoma S 180; S 180, 100 mg/kg i.p. on D1, day 60): 40%
anti-tumour activity (in words) (sarcoma S 180; sarcoma S 180): Very marked anti-tumor activity; also recorded: exerts the anti-tumour activity
ILS (leukemia L 1210 [1]; 62.5 mg/kg i.p. on D1): 26%
ILS (leukemia L 1210 [1]; 62.5 mg/kg i.p. on D4): 17%
ILS (leukemia L 1210 [1]; 125 mg/kg i.p. on D4): 50%
anti-tumour activity (in words) (leukemia L 1210 [2]; graft intraperitoneal, treatment intravenous): active
ILS (leukemia L 1210 [2]; 50 mg/kg i.v. on D1): 25%
ILS (leukemia L 1210 [2]; 125 mg/kg i.v. on D1): 41%
loss of weight on the 4th day (mouse; LD10 dose): 3.5 g
loss of weight on the 4th day (mouse; LD50 dose): 4.3 g
toxicity (in words) (mouse; mice): Extremely low toxicity
LD10 (mouse; mouse, I.P.): 135 mg/kg
LD50 (mouse; mouse, I.P.): 236 mg/kg
LD90 (mouse; mouse, I.P.): 365 mg/kg
LD10 (mouse; mouse, I.V.): 348 mg/kg
LD50 (mouse; mouse, I.V.): 421 mg/kg
LD90 (mouse; mouse, I.V.): 489 mg/kg
LD50 (mouse; mouse, P.O.): > 1 000 mg/Kg
LD10 (dose killing 10% of the animals) (mouse; mouse, one single injection, Table V): 153 mg/kg
Amount of penetrating platinum per cell (L 1210 cells; PDD 9 mg/kg): 7e-14 g
platinum per cell (L 1210 cells): 700. 10^-16
peritonitis (abdominal viscera; healthy mice, i.p. injection): also observed in healthy mice
occurrence of peritonitis in relation to the 1,2-diaminocyclohexane ligand (abdominal viscera; i.p.): seems to be correlated with the presence of 1,2-diaminocyclohexane
peritonitis / long-term toxic effect (abdominal viscera; i.v. administration): never encountered; also recorded: not observed
peritonitis (abdominal viscera; tumour-bearing mice, i.p. treatment): most of the mice reaching 30 days of survival treatment with PHM and PHIC developed peritonitis; also recorded: causes peritonitis
